Measured values reported in article PMC7508583, “Discovery and Preclinical Development of Antigiardiasis Fumagillol Derivatives” (Antimicrobial Agents and Chemotherapy, 2020).
Where two headings read alike, the source gives them in different places.

Assays:
[1] = system: G. lamblia GS trophozoites; test: Trophozoite growth inhibition, ATP content (ATPlite) assay; type: cell-based, Giardia lamblia; conditions: for IC50: Giardia duodenalis, 72 h, read-out: Mean [IC50 ± SE(IC50)] G. lamblia GS
Description: (§1) Antigiardia assays followed by enzyme inhibition determination facilitated the selection of compounds for permeation and stability studies by in vitro methods, prior to advancing to in vivo studies. Compound potency was evaluated first by measuring G. lamblia trophozoite growth as a function of the compound concentration and calculating the IC50 values. Potency in Entamoeba histolytica trophozoites was also determined because of the early report that fumagillin cured amebiasis ([19]). The intent was to test whether the compounds would be suitable to treat gastrointestinal amebiasis rather than the invasive form of the disease, given that the designed strategy was based on reducing compound permeation across the epithelial cell barrier. […] Trophozoite growth was determined by monitoring the ATP cell content using a high-throughput homogeneous assay developed previously for G. lamblia ([57]). The ATP content serves as a marker of cell integrity since ATP degrades rapidly when cells die and the luminescence signal generated by luciferase requires ATP. The same assay was also adopted in 96-well plates for E. histolytica trophozoite growth measurement, as described in Materials and Methods. A similar E. histolytica trophozoite ATP content assay was described previously ([58]). Fumagillin, TNP-470, and a standard-of-care drug (metronidazole) served as positive controls, and cells without the drug (in the presence of 0.5% dimethyl sulfoxide [DMSO]) served as the negative control.
(§2) Trophozoites of G. lamblia isolates WB and GS were grown anaerobically in borosilicate glass screw-cap culture tubes (Fisher Scientific) at pH 7.0 in Keister’s modified TYI-S-33 medium (ATCC). The medium was supplemented with 10% heat-inactivated bovine serum (Sigma-Aldrich) and 0.05% bovine bile (Sigma-Aldrich). To attain low-oxygen-tension conditions, the tubes were filled to 85% to 90% of their total volume capacity and incubated without shaking at 37°C. Subcultures (2 × 10^5 trophozoites per tube) were made three times a week. Detachment of trophozoites for inoculation was achieved by chilling the cultures on ice for 20 min. Culturing and detachment of metronidazole-resistant G. lamblia assemblage A 713M3 and assemblage B 1279-M1 trophozoites followed the same protocol, except that the growth medium was supplemented with metronidazole, with the concentration gradually being increased to 10 μM.
(§3) The growth inhibition assays were performed in duplicate, once for each compound, for all compounds except fumagillin, which served as a positive control and whose inhibitory ability was measured multiple times as new sets of compounds were tested. All dry compounds except for fumagillin were dissolved in dimethyl sulfoxide (DMSO; Sigma) at a stock concentration of 10 mM and then diluted 1:100 in growth medium to a final compound concentration of 100 μM; fumagillin was diluted to 20 μM. Compound solution aliquots (100 μl) were prepared by 3-fold serial dilutions in growth medium containing 0.5% DMSO and distributed into 96-well assay plates. This was followed by the addition of 10 μl G. lamblia or E. histolytica culture containing 10,000 trophozoites. Fumagillin served as a positive control, and the medium-diluted DMSO alone served as a negative control. The assay plates were placed in a BD GasPak EZ container system (BD Diagnostics) to create an anaerobic growth environment. The sealed containers were incubated at 37°C for 72 h. Following incubation, 70 μl/well of the ATPlite reagent (PerkinElmer) was added to the assay plates for one-step lysis and ATP level detection. The luminescent signals of the assay plates were measured on an EnSpire 2300 plate reader (PerkinElmer). Concentration-response titration points for each compound were fitted to a 4-parameter logistic nonlinear regression model using the KaleidaGraph tool, yielding the IC50 value and standard error (SE).

[2] = system: G. lamblia WB trophozoites; test: as above; type: cell-based; conditions: Giardia duodenalis, 72 h, read-out: Mean [IC50 ± SE(IC50)] G. lamblia WB
Description: as §1, §2, §3

[3] = system: E. histolytica HM1:IMSS trophozoites; test: as above; type: cell-based; conditions: Entamoeba histolytica, 72 h, read-out: Mean [IC50 ± SE(IC50)] E. histolytica HM1: IMSS
Description: as §1
E. histolytica strain HM1:IMSS trophozoites were grown at 37°C in TYI-S-33 medium supplemented with penicillin (100 U/ml) and streptomycin sulfate (100 μg/ml) ([65]). Trophozoites were grown anaerobically in borosilicate tubes or T25 flasks, and subcultures were made 1 to 2 times a week. Trophozoites were detached for inoculation by chilling the cultures on ice for 20 min.
as §3, with “The sealed containers were incubated at 37°C for 72 h.” left out

in vitro = conditions: human; for Papp at 120 min, 10 µM: Caco-2, pH 7.4, Mean ± SE Papp, Caco-2, 10 μM
Source text: Next, we tested the permeation of the compounds across polarized Caco-2 cell monolayers, a method that is widely used as an in vitro model of the human small intestinal mucosa to predict the absorption of orally administered drugs ([63], [64]). With noninvasive intestinal infections, there is no need to establish a high plasma concentration. Since a high rate of uptake through the host gut lining could increase compound toxicity, we sought to reduce gut absorption. […] Both apical-to-basal and basal-to-apical permeation values were measured to obtain information about efflux. […] The efflux machinery is currently unknown.
Passage 36 Caco-2 cells were used. The cells were cultured in Dulbecco’s modified Eagle’s medium (DMEM; 5 ml of 100 mM sodium pyruvate, 5 ml of 100× nonessential amino acids, 5 ml of penicillin-streptomycin, and 100 ml of heat-inactivated fetal bovine serum added to 385 ml of DMEM aseptically and mixed thoroughly), pH 7.4, at 37°C in 5% CO2. DMEM (250 μl) was added to the basal compartment of 96-well multiscreen Caco-2 cell plate consisting of high-pore-density polycarbonate (Millipore) with a 0.4-μm pore size and a 0.11-cm^2 active membrane area. The cells were seeded at a density of 12,000 cells/well (0.16 × 10^6 cells/ml) in the apical wells, with one well containing only medium as blank. The Caco-2 cell plate was placed in a CO2 incubator at 37°C for cell proliferation. On the day of assay, the medium was removed, washed twice with Hanks balanced salt solution (HBSS) buffer supplemented with 2% bovine serum albumin (BSA), pH 7.4, and incubated with the HBSS buffer for 30 min at 37°C. Wells with transepithelial electrical resistance values of greater than 230 Ω · cm^2 were selected for the experiments. […] The assay was performed in duplicate.
Seventy-five microliters of the test compounds was added to the apical wells, and 250 μl of HBSS buffer with 2% BSA was added to the basal wells. The plate was incubated in a CO2 incubator with shaking on a plate shaker at 150 rpm for 120 min, after which 25 μl of the basal samples was collected and processed.
Two hundred fifty microliters of test compounds was added to the basal wells, and 75 μl of HBSS buffer with 2% BSA was added to the apical wells. The plate was incubated in a CO2 incubator with shaking on a plate shaker at 150 rpm for 120 min, after which 25 μl of the apical samples was collected and processed.
For sample processing, a single-point calibration curve in HBSS buffer with 2% BSA was used. Donor samples were diluted 1:1 with HBSS containing 2% BSA, and receiver samples were diluted with 1:1 HBSS buffer and precipitated with 200 μl of acetonitrile containing internal standard. The samples were vortexed for 5 min at 1,000 rpm and centrifuged at 4,000 rpm for 10 min. One hundred microliters of the supernatant was diluted with 200 μl of water and analyzed by LC-MS/MS (with a Shimadzu ultrafast liquid chromatograph and an API 4000 LC-MS/MS system).
The apparent permeation coefficients (Papp) were calculated as Papp = (dQ/dT) × (1/C0) × (1/A), where dQ is the amount permeated to the receiver compartment of the 96-well plate, dT is the time of compound incubation, C0 is the initial compound concentration in the donor compartment of the well, and A is the surface area of the monolayer.

[4] = trophozoite growth, ATP content

| SMILES | IC50 [1, 4] | IC50 [2, 4] | IC50 [3, 4] | also measured |
| --- | --- | --- | --- | --- |
| COC1C(OC(=O)NC(=O)CN2CCN(C)CC2)CCC2(CO2)C1C1(C)OC1CC=C(C)C (centres unmarked) [Compound 5] | 12.3 ± 2.5 nM | 22.3 ± 1.4 nM | 117 ± 8.4 nM |  |
| COC1C(OC(=O)NC(=O)CN2CCN(CCO)CC2)CCC2(CO2)C1C1(C)OC1CC=C(C)C (centres unmarked) [Compound 6] | 37 ± 4.4 nM | 53.6 ± 10.6 nM | 223 ± 29.8 nM |  |
| CO[C@@H]1[C@H](OC(=O)Nc2ccc(C(=O)N3CCC(O)CC3)cc2)CC[C@]2(CO2)[C@H]1[C@@]1(C)O[C@@H]1CC=C(C)C [Compound 10, (3R,4S,5S,6R)-5-methoxy-4-((2R,3R)-2-methyl-3-(3-methylbut-2-en-1-yl)oxiran-2-yl)-1-oxaspiro[2.5]octan-6-yl (4-(4-hydroxypiperidine-1-carbonyl)phenyl)carbamate] |  |  |  | IC50 [1]: 38.4 ± 3.4 nM; IC50 [2]: 171 ± 21 nM; IC50 [3]: 32 ± 2.1 nM |
| CCOC(=O)CNC(=O)OC1CCC2(CO2)C(C2(C)OC2CC=C(C)C)C1OC (centres unmarked) [Compound 13] |  |  |  | IC50 [1]: 1.5 ± 0.3 nM; IC50 [2]: 13.1 ± 2.4 nM; IC50 [3]: 23.7 ± 2.6 nM |
| CCOC(=O)CO[C@@H]1CC[C@]2(CO2)[C@@H]([C@@]2(C)O[C@@H]2CC=C(C)C)[C@@H]1OC [Compound 18, ethyl 2-(((3R,4S,5S,6R)-5-methoxy-4-((2R,3R)-2-methyl-3-(3-methylbut-2-en-1-yl)oxiran-2-yl)-1-oxaspiro[2.5]octan-6-yl)oxy)acetate] |  |  |  | IC50 [1]: 40.1 ± 4.8 nM; IC50 [2]: 42.6 ± 17.5 nM; IC50 [3]: 318 ± 16 nM |
| CO[C@@H]1[C@H](O)CC[C@]2(CO2)[C@H]1[C@@]1(C)O[C@@H]1CC=C(C)C [Fumagillol] |  |  |  | IC50 [1]: 3400 ± 489 nM |
| CC(C)NCC(O)COc1cccc2ccccc12 (centres unmarked) [Propranolol, reference compound] |  |  |  | efflux ratio at 120 min, 10 µM (in vitro; Caco-2, pH 7.4): 0.36; Papp at 120 min, 10 µM (in vitro; apical to basal): 22.6 ± 1.1 ×10⁻⁶ cm/s; Papp at 120 min, 10 µM (in vitro; basal to apical): 8.14 ± 0.28 ×10⁻⁶ cm/s |
| CO[C@@H]1[C@H](OC(=O)NC(=O)CCl)CC[C@]2(CO2)[C@H]1[C@@]1(C)O[C@@H]1CC=C(C)C [TNP-470, (3R,4S,5S,6R)-5-methoxy-4-((2R,3R)-2-methyl-3-(3-methylbut-2-en-1-yl)oxiran-2-yl)-1-oxaspiro[2.5]octan-6-yl (2-chloroacetyl)carbamate, reference compound] |  |  |  | IC50 [1]: 3.4 ± 0.7 nM; IC50 [2]: 2.6 ± 0.2 nM |

More lines, main results first:

| IC50 [1, 4] | IC50 [2, 4] | IC50 [3, 4] | SMILES | also measured |
| --- | --- | --- | --- | --- |
| 2.4 ± 0.5 nM | 2 ± 0.2 nM | 4.7 ± 0.5 nM | COC1C(OC(=O)NC(=O)CN(C)C)CCC2(CO2)C1C1(C)OC1CC=C(C)C (centres unmarked) [Compound 1] |  |
| 82.5 ± 26.4 nM | 90.9 ± 34.3 nM | 435 ± 79 nM | COC1C(OC(=O)NC(=O)CN2CCCCC2)CCC2(CO2)C1C1(C)OC1CC=C(C)C (centres unmarked) [Compound 2] |  |
| 7 ± 1 nM | 3.7 ± 1 nM | 14.6 ± 2.6 nM | COC1C(OC(=O)Nc2ccccc2)CCC2(CO2)C1C1(C)OC1CC=C(C)C (centres unmarked) [Compound 7] |  |
| 27.2 ± 18.1 nM | 12.5 ± 4.2 nM | 54 ± 4.3 nM | CCOC(=O)c1ccc(NC(=O)OC2CCC3(CO3)C(C3(C)OC3CC=C(C)C)C2OC)cc1 (centres unmarked) [Compound 8] | fold less active than compound 7 ([1]; trophozoite IC50): ~4 fold |
| 63.2 ± 10 nM | 342 ± 50 nM | 94 ± 6.8 nM | COC1C(OC(=O)Nc2ccc(CC(=O)O)cc2)CCC2(CO2)C1C1(C)OC1CC=C(C)C (centres unmarked) [Compound 12] |  |
| > 100000 nM | > 100000 nM | 11200 ± 123 nM | COC1C(OC(=O)NCC(=O)O)CCC2(CO2)C1C1(C)OC1CC=C(C)C (centres unmarked) [Compound 14] |  |
| 2.9 ± 0.8 nM | 4.9 ± 2.2 nM | 7.8 ± 0.6 nM | COC1C(OC(=O)N2CCCCC2)CCC2(CO2)C1C1(C)OC1CC=C(C)C (centres unmarked) [Compound 15] |  |
| 109 ± 13.7 nM | 251 ± 70 nM | > 100000 nM | COC1C(OC(=O)N2CCN(c3ccccc3)CC2)CCC2(CO2)C1C1(C)OC1CC=C(C)C (centres unmarked) [Compound 17] | fold loss of potency compared to compound 16 ([1]; G. lamblia trophozoites): 100 fold |
| > 2000 nM | > 2000 nM | > 2000 nM | COC1C(OCC(=O)O)CCC2(CO2)C1C1(C)OC1CC=C(C)C (centres unmarked) [Compound 19] |  |
